Results: PubChem BioAssay AID1902 (Broad Institute, 2009)
pEC50: −log10 of the molar value. Calls of active or inactive are those of the source.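 The calls were made as follows: active = EC50 no more than a set limit of log units above the highest dose; inactive = the rest.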

target: S. pyogenes SKKanGAS, kanamycin survival, BacTiterGlo, 6 h; assay: S. pyogenes SKKanGAS kanamycin growth inhibitors – SKKanGAS strain, luminescence, dose confirmation, streptokinase promoter inhibitor project, dose response (AID 1902);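 also: lower survival reflects blocked streptokinase promoter driving kanamycin resistance gene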

| Structure (SMILES) | pEC50 | EC50 |
| --- | --- | --- |
| CCOC(=O)N1CCN(C(=O)c2ccc3c(c2)NC(=O)/C(=C\c2ccc(OC)c(OC)c2)S3)CC1 | 5.96 |  |
| O=C(Nc1scc(-c2ccc(Br)cc2)c1C(=O)O)c1ccccc1F | 5.73 |  |
| C/C(=N\NC(=O)c1cccc(Br)c1)c1ccccn1 | 6.13 |  |
| COc1cc(/C=C/c2ccc3cccc(O)c3n2)cc(OC)c1OC | 5.44 |  |
| O=C(O)CN1C(=O)/C(=C\c2ccccc2OCc2ccc(Cl)cc2Cl)SC1=S | 5.56 |  |
| O=C(Nc1ccccc1)c1nnsc1S(=O)c1ccc(Cl)cc1 (stereo not drawn) | 5.87 |  |
| CCC1(C)Cc2ccccc2-c2c1c(=O)n(Cc1ccccc1)c1nnnn21 (stereo not drawn) | 5.82 |  |
| CCn1c(=O)c(C(=O)NNC(=O)Cc2ccccc2)c(O)c2ccccc21 | 5.33 |  |
| Cc1[nH]c2ccccc2c1/C=N/Nc1nc2ccccc2[nH]1 | 5.31 |  |
| C/C(=N\NC(=O)c1cc(Br)ccc1O)c1cccc(NC(=O)c2ccccc2F)c1 | 5.54 |  |
| CC(C)c1ccc2[nH]c(O)c(N=NC(=O)c3cccc(S(=O)(=O)N4CCCCC4)c3)c2c1 | 5.15 |  |
| Cc1cc2oc(=O)cc(CN(C)Cc3ccccc3Cl)c2cc1C | 5.38 |  |
| Oc1ccc(/C=N/n2c3ccccc3c3ccccc32)cc1 | 5.24 |  |
| CCOC(=O)C1CCN(C(=O)c2ccc3c(=O)n4nc(Nc5cc(C)ccc5C)sc4nc3c2)CC1 | 5.09 |  |
| O=[N+]([O-])c1ccc(-c2nc(-c3cccs3)c(-c3cccs3)[nH]2)cc1 | 5.02 |  |
| CC(C)=CCc1c(O)cc2oc3c(CC=C(C)C)c(O)c(O)c(CC=C(C)C)c3c(=O)c2c1O | 6.08 |  |
| Cc1cccc(OCCCCc2c(C)n[nH]c2C)c1C | 5.32 |  |
| CC(C)(C)Nc1nc(-c2ccccn2)nc2ccccc12 | 6.67 |  |
| Cn1cccc1CC(=O)NNC(=S)NC(=O)c1ccccc1Br | 5.79 |  |
| CC(/C=C1\SC(=S)N(NS(=O)(=O)c2ccc(C)cc2)C1=O)=C\c1ccccc1 | 5.54 |  |
| Cc1cccc(Nc2nnc(-c3ccc(N4CCOCC4)c([N+](=O)[O-])c3)c3ccccc23)c1 | 5.34 |  |
| COc1ccc(N2CCN(C(=S)NC(=O)c3cccs3)CC2)c([N+](=O)[O-])c1 | 5.21 |  |
| Clc1ccc(-c2n[nH]c3c2CCC3)cc1Cl | 4.90 |  |
| CCCCc1nc(N2CCN(C(=O)c3ccco3)CC2)c(C#N)c2c1CCCC2 | 5.19 |  |
| O=C(CSc1ccc(-c2ccc(Cl)cc2)nn1)NC1CCCC1 |  | > 15 µM (inactive) |
| CCCCCCOC(=O)/C=C/c1c(C)[nH]c(=O)[nH]c1=O | 6.32 |  |

| Structure (SMILES) | pEC50 | EC50 |
| --- | --- | --- |
| CC1(C)CC[C@]2(C(=O)O)CC[C@]3(C)C(=CCC4[C@@]5(C)CC[C@H](O)C(C)(C)C5CC[C@]43C)C2C1 (stereo partly drawn) | 5.57 |  |
| O=C(Nc1nc2ccccc2[nH]1)c1cccc(Cl)c1 | 4.98 |  |
| COc1ccc(Cl)cc1C(=O)NNC(=S)NC(=O)c1cc(-c2ccccc2)nc2ccccc12 | 7.09 |  |
| O=C(NC(=S)Nc1ccc(Cl)cn1)C(c1ccccc1)c1ccccc1 | 5.46 |  |
| CC(C)c1ccc(-n2c(O)c(/C=N/NC(=O)c3ccccc3O)c(=O)[nH]c2=S)cc1 | 5.16 |  |
| COc1ccc(/C=C/c2ccc3c(Br)ccc(O)c3n2)cc1 | 6.11 |  |
| CC(C)(CN=C1NS(=O)(=O)c2ccccc21)CNC(=O)c1ccccc1 |  | > 15 µM (inactive) |
| Clc1ccc(-c2csc(Nc3ccccc3)[n+]2Cc2ccco2)c(Cl)c1 | 5.48 |  |
| OC(CNCC1CCCO1)Cn1c2ccc(Br)cc2c2cc(Br)ccc21 (stereo not drawn) | 5.46 |  |
| Cc1[nH]n(-c2ccccc2)c(=O)c1N=Nc1c(O)cc(S(=O)(=O)N(C)C)c2ccccc12 | 5.96 |  |
| CCN1CCN(Cc2ccc(NC(=O)c3ccc(C)c(/C=C/c4cnc(Nc5cc(N6CCNCC6)nc(C)n5)cn4)c3)cc2C(F)(F)F)CC1 | 5.08 |  |
| CCn1c(=S)sc2c(=O)[nH]c(SCC(=O)Nc3cc(OC)ccc3OC)nc21 | 5.18 |  |
| Cc1c(C(=O)Nc2nonc2-c2ccc(F)cc2)oc2ccc(F)cc12 | 5.39 |  |
| COc1ccc(-c2oc3cccnc3c2C#CC2(O)CCCCC2)cc1 | 5.13 |  |
| O=C(/C=C/c1ccccc1)NC(NC(=S)Nc1ccc(Cl)cc1)C(Cl)(Cl)Cl (stereo not drawn) | 5.38 |  |
| Cc1c(Cl)c([N+](=O)[O-])nn1Cc1ccc(C(=O)N/N=C\c2cc(Cl)ccc2O)o1 | 5.83 |  |
| Cc1[nH]n(-c2ccccc2)c(=O)c1/C=N/NC(=O)c1ccccc1F | 5.95 |  |
| COc1ccc(C2/C=C\CN(C(=O)c3ccccc3)CC(=O)N2Cc2ccc(F)cc2)cc1 (stereo not drawn) |  | > 15 µM (inactive) |
| CCNc1nc(Oc2c(Cl)cccc2Cl)cc(C(F)(F)F)n1 | 5.18 |  |
| COc1ccc2nc(N3C(=O)CNC3=S)sc2c1 | 5.54 |  |
| COCCCn1c(N)c(C(=O)Nc2ccccc2)c2nc3ccccc3nc21 | 4.93 |  |
| CCCc1cc2c(-c3ccccc3)cc(=O)oc2cc1OCc1ccc(C(=O)O)o1 | 5.05 |  |
| COc1cc(NC(=O)CSc2ncnc3sc4c(c23)CCCC4)c(C(=O)O)cc1OC | 4.92 |  |
| CCCCCCC(=O)N/N=C/c1c(O)n(C(C)CC)c(=S)[nH]c1=O (stereo not drawn) | 5.49 |  |
| Cc1ccc(-c2cc([C@H]3[C@@H]4C=CCC[C@@]4(C)C(=O)N3Cc3ccccc3)ccc2F)cc1 | 5.46 |  |
| COc1cc2oc3ccc(C#Cc4ccc(N)cc4)cc3c(=O)c2cc1OC | 6.10 |  |

| Structure (SMILES) | pEC50 | EC50 |
| --- | --- | --- |
| N=C1SCC(=O)N1c1ncc(Cc2cccc(Cl)c2)s1 | 6.84 |  |
| COc1cccc(C(=O)N/N=C(/c2ccccc2)c2ccccn2)c1 | 5.05 |  |
| CNC(=O)C(=O)NCC1OCCN1S(=O)(=O)c1ccc(OC)c(OC)c1 (stereo not drawn) |  | > 15 µM (inactive) |
| Cc1cc(=O)oc2cc(OCC(=O)N3CCN(C(=O)C4COc5ccccc5O4)CC3)ccc12 (stereo not drawn) | 5.50 |  |
| COc1ccccc1-c1nnc(Nc2nc3c(OC)cccc3s2)o1 | 6.10 |  |
| COC(=O)c1c(C)[nH]c(C(=O)OCC(=O)N(CC(C)C)c2c(N)n(Cc3ccccc3)c(=O)[nH]c2=O)c1C | 5.03 |  |
| C=CCn1c(O)c(N=NC(=S)Nc2ccccc2F)c2ccccc21 | 6.24 |  |
| Cn1ccc(=Nc2ccc(NC(=O)c3ccc(N=c4ccn(C)c5ccc([N+](=O)[O-])cc45)cc3)cc2)cc1 | 6.45 |  |
| O=C1N/C(=N\N=C\c2cccnc2)SC1Cc1ccc(SC(F)F)cc1 (stereo not drawn) | 5.51 |  |
| S=C(Nc1ccc(Cl)cc1)c1nc2ccccc2[nH]1 | 6.74 |  |
| CC(C)c1ccc(N2C(=O)/C(=C/N(C)C)SC2=S)cc1 | 5.33 |  |
| CNC(=S)N1CCN(c2c(F)cc3c(=O)c(C(=O)O)cn(C4CC4)c3c2OC)CC1C (stereo not drawn) | 6.80 |  |
| CC(C)COCc1ccc(O)c2ncccc12 | 5.99 |  |
| COc1ccc(OC)c(C2C=C(C34CC5CC(CC(C5)C3)C4)NC(=S)N2)c1 (stereo not drawn) | 5.53 |  |
| Cc1ccc(NC(=O)CN(C)Cc2nc3c(Br)cc(Br)cc3c(=O)[nH]2)cc1 | 5.42 |  |
| O=C(NC(NC(=S)Nc1ccccc1Cl)C(Cl)(Cl)Cl)c1cccc(Cl)c1 (stereo not drawn) | 5.80 |  |
| Cc1ccc(C(C)C)c(OCc2ccc(C(=O)N/N=C/c3cccc(O)c3O)cc2)c1 | 5.25 |  |
| Cc1ccc(C2C(C(=O)c3cc4ccccc4o3)=C(O)C(=O)N2c2cc(C)on2)cc1 (stereo not drawn) | 5.68 |  |
| Cc1cc(C)n(-c2nc(Nc3ccccc3C(F)(F)F)nc(-n3nc(C)cc3C)n2)n1 | 5.57 |  |
| Cc1cc(NC(=O)c2sccc2C)n(-c2nc3ccccc3[nH]2)n1 | 5.55 |  |
| O=C1C2=C(NC(=S)NC2c2ccc(Cl)cc2)NC(c2ccc(Cl)cc2)N1c1ccc(Cl)cc1 (stereo not drawn) | 5.72 |  |
| O=C(CSc1ccc2ccccc2n1)N/N=C/c1ccccc1O | 5.67 |  |
| Cn1cc(C(=O)c2ccc(Cl)cc2Cl)cc1C(=O)N/N=C(\N)COc1cccc(C(F)(F)F)c1 | 5.49 |  |
| CC(C)n1cnc2c(NCc3ccccc3)nc(NCc3ccccc3)nc21 | 5.51 |  |
| CO[C@H]1C=CO[C@@]2(C)Oc3c(C)c(O)c4c(O)c(c5c(c4c3C2=O)NC2(CCN(CC(C)C)CC2)N=5)=NC(=O)C(C)=CC=C[C@H](C)[C@H](O)[C@@H](C)[C@@H](O)[C@@H](C)[C@H](OC(C)=O)[C@@H]1C | > 7.22 |  |
| O=C(Nc1nnc(SCc2ccccc2Cl)s1)C1COc2ccccc2O1 (stereo not drawn) | 5.14 |  |

| Structure (SMILES) | pEC50 | EC50 |
| --- | --- | --- |
| COc1ccc(C(=O)CSc2nnc(CNC(=O)c3ccc(S(=O)(=O)N(C)C)cc3)o2)cc1 |  | > 15 µM (inactive) |
| NCCS(=O)(=O)NC1CCCCC1 |  | > 15 µM (inactive) |
| O=C(Nc1ccccc1)Nc1cc(OCC(F)(F)F)cc(OCC(F)(F)F)c1 | 5.32 |  |
| COc1ccc(C(=O)c2ccc(N3CCN(C4CC(=O)NC4=O)CC3)cc2)cc1F (stereo not drawn) | 5.56 |  |
| CC[C@@H](C)[C@H](NC(=O)OC(C)(C)C)c1nnc(S(=O)(=O)Cc2cc(C)ccc2C)o1 | 5.02 |  |
| Oc1c(C(Nc2cccc(C(F)(F)F)c2)c2cccnc2)ccc2cccnc12 (stereo not drawn) | 5.81 |  |
| COc1cnc(-c2ccccn2)nc1Oc1ccccc1 | 5.69 |  |
| CC(C(=O)NC1C(=O)N2C(C(=O)O)=C(CSc3nnnn3C)CSC12)n1cc(Cl)cn1 (stereo not drawn) | 7.11 |  |
| O=C(N/N=C/c1cc([N+](=O)[O-])ccc1O)c1cccc(NC(=O)c2cccc(Cl)c2)c1 | 5.33 |  |
| Cc1cc(/C=N/n2cnnc2)c(C)n1-c1ccc(OCc2ccc(Cl)cc2Cl)cc1 | 5.68 |  |
| Fc1cccc2sc(Nc3nc4cc5c(cc4s3)OCO5)nc12 |  | > 15 µM (inactive) |
| CCn1cc(CN2CCC(C(=O)Nc3ccc(Oc4cccnc4)cc3)CC2)cn1 |  | > 15 µM (inactive) |
| CCCNC(=O)c1ccc(N2CCC3(CC2)CC(c2ccccc2)=NO3)c(NC(=O)c2ccco2)c1 | 5.10 |  |
| CCn1c(=O)c(C(=O)Nc2nc3ccccc3[nH]2)c(O)c2ccccc21 | 5.99 |  |
| CCOc1ccc(C(=O)N/N=C(\c2ccccc2)c2ccccn2)cc1 | 5.24 |  |
| Cc1nn(-c2ccccc2)c2sc(C(=O)N3CCc4ccccc4C3)cc12 | 5.38 |  |
| CC(C)=CCc1c(-c2ccc(O)cc2O)oc2cc3c(c(O)c2c1=O)C=CC(C)(C)O3 | 5.80 |  |
| CC12CCC(C/C1=N\N=C1\NC(=O)/C(=C\c3ccc(Cl)cc3)S1)C2(C)C (stereo not drawn) | 5.95 |  |
| Cc1nn(C(=O)c2cccnc2)c(C)c1Sc1ccc(Br)cc1 | 5.36 |  |
| CCS(=O)(=O)N1Cc2ccccc2CC1C(=O)Nc1nnc(SCc2ccc(C#N)cc2)s1 (stereo not drawn) | 5.08 |  |
| COc1cc(/C=C2\SC(=Nc3ccccc3)N(CCc3c[nH]c4ccccc34)C2=O)ccc1OC(C)C(=O)O (stereo not drawn) | 5.85 |  |
| Cc1cccc(/C=C2/S/C(=N/N=C3\CC4CCC3(C)C4(C)C)NC2=O)c1 (stereo not drawn) | 5.93 |  |
| CN1C(=O)/C(=C\c2ccccc2F)Sc2ccc(C(=O)NC3CCN(Cc4ccccc4)CC3)cc21 | 5.21 |  |
| CCCCNc1c2c3c(cccc3n(C)c1=O)C(=O)c1ccccc1-2 | 5.20 |  |
| CC(C)(C)c1ccc(C(=O)N/N=C/c2ccccn2)cc1 | 5.48 |  |
